Results on four molecules are retold here after US11407792B2, “Regulating electron flow using fragmented proteins” (WILLIAM MARSH RICE UNIVERSITY, priority 2017, dated 2022).

Data set [1] deals with sFd-35-ER. As to the kind of experiment: Complementation of E. coli EW11 growth by sFd-35-ER with 4-HT and other estrogen receptor modulators. The format is cell-based, Escherichia coli. The note with it: for Activation of sFd-35-ER ET (growth complementation): agonists, antagonists and an endocrine disruptor; for Effect of estrogen receptor modulators on complementation of E. coli EW11 by sFd-35-ER, compared to DMSO alone: modulator 50 μM, 200 ng/mL aTc. As to the method: Growth assay. For all growth experiments, E. coli EW11 were freshly transformed with two plasmids, one encoding the e-donor and acceptor pair (FNR and SIR) and the other encoding either a native Fd, a C42A mutant of Ml Fd that is unable to coordinate a 2Fe-2S cluster, or an engineered Fd. Starter cultures were inoculated using single colonies obtained by selecting for colonies containing both plasmids on LB-agar plates. These starter cultures were grown in deep-well 96-well plates for 18 hours at 37° C. in 1 mL of a non-selective modified M9 medium (M9c), which contained sodium phosphate, dibasic (6.8 g/L), sodium phosphate, monobasic (3 g/L), sodium chloride (0.5 g/L), ammonium chloride (1 g/L), calcium chloride (0.1 mM), magnesium sulfate (10 mM), ferric citrate (24 mg/L), p-aminobenzoic acid (2 mg/L), inositol (20 mg/L), adenine (5 mg/L), uracil (20 mg/L), tryptophan (40 mg/L), tyrosine (1.2 mg/L), and the remaining 18 amino acids (80 mg/L each). For auxotroph complementation analysis, starter cultures that had been grown to stationary phase in M9c were diluted ˜1:100 using a 96-well replicator pin into 100 μL of a selective modified M9 medium (M9sa), which is identical to M9c but lacks cysteine and methionine. […] Optical density (OD) measurements were taken every 10 minutes. To select for the Fd and e-donor/acceptor plasmids, all growth steps included chloramphenicol and streptomycin at 34 μg/mL and 100 μg/mL, respectively.
To test whether this domain-insertion strategy can be used to diversify the chemical regulation of sFd-35, the ligand-binding domain (LBD) of the human estrogen receptor (ER) was inserted after residue 35 to create sFd-35-ER (FIG. 26E).
The activity of sFd-35-ER was evaluated by expressing this protein using an aTc-inducible promoter (FIG. 31B). […] This protein was also expressed as a fusion to RFP (sFd-35-ER-RFP) to evaluate how 4-HT affects protein expression.
To evaluate how these different modulators affect sFd-35-ER ET, sFd-35-ER growth complementation was evaluated in the presence of agonists, antagonists, and an endocrine disruptor (FIG. 32D).

The conditions of data set [2]: Hirasawa et al., 2004; cited from earlier work.

For `CC(C)(c1ccc(O)cc1)c1ccc(O)cc1` [bisphenol-A], in data set [1], the “Activation of sFd-35-ER ET (growth complementation)” value (from here on “Activation of sFd-35-ER ET”) was “activated” and the “Effect of estrogen receptor modulators on complementation of E. coli EW11 by sFd-35-ER, compared to DMSO alone” value (“Effect … compared to DMSO alone” for short) is recorded as “significantly enhance growth”.

Take `CC[C@H](c1ccc(O)cc1)[C@@H](CC)c1ccc(O)cc1` [hexestrol]: in data set [1], the “Activation of sFd-35-ER ET” value is given as “not activated” and the “Effect … compared to DMSO alone” value is on record as “do not significantly enhance growth”.

Regarding `Oc1ccc2c(c1)CC[C@H](c1ccccc1)[C@@H]2c1ccc(OCCN2CCCC2)cc1` [lasoxifene], in data set [1], the “Activation of sFd-35-ER ET” value is given as “activated” and the “Effect … compared to DMSO alone” value is listed as “significantly enhance growth”.

B1: SIR: Zea mays Fd-dependent sulfite reductase, electron acceptor (protein, UniProt O23813 51-635, looked up)
Sulfite reductase …: VSAPAKKDASEVKRSKVEIIKEKSNFLRYPLNEELVSEAPNINESAVQLIKFHGSYQQTDRDVRGQKNYSFMLRTKNPCGKVPNQLYLAMDTLADEFGIGTLRLTTRQTFQLHGVLKKNLKTVLSTVIKNMGSTLGACGDLNRNVLAPAAPYVKKDILFAQQTAENIAALLTPQSGAYYDLWVDGEKIMSAEEPPEVTKARNDNSHGTNFPDSPEPIYGTQYLPRKFKVAVTAAGDNSVDILTNDIGVVVVSDDAGEPIGFNIYVGGGMGRTHRVETTFPRLADPLGYVPKEDILYAIKAIVVTQRENGRRDDRKYSRMKYMIDRWGIDRFRAEVEKYYGKKFESFRPLPEWQFNSYLGWQEQGDGKLFYGVHVDNGRVGGQAKKTLREIIEKYNLDVSITPNQNLILCGIDQAWREPITTALAQAGLLEPKDVDPLNLTAMACPALPLCPLAQTEAERGILPILKRIRAVFNKVGIKDSESVVVRITGCPNGCARPYMAELGFVGDGPKSYQIWLGGTPNQSTLAESFMDKVKLDDIEKVLEPLFTYWNGTRQEGESFGSFTNRTGFDKLKEVVNKWAESPSAA
Regarding B1, in data set [2], the “[4Fe-4S] E°” value is reported as −415 mV and the siroheme potential is given as −285 mV.
